Experiments:
Type in all cases: cell-based, human
SOX17-mCherry hESCs = assay: Hematopoietic mesoderm and SOX17+CD34+ hemogenic precursor specification
Method: (§1) SOX17^mCherry/+ H9 hESCs (referred to as SOX17-mCherry hESCs throughout this study) were routinely propagated in mTeSR1 (StemCell Technologies)+1% penicillin/streptomycin. They were passaged ˜1:12-1:25 as fine clumps using Accutase (Gibco) onto plates precoated with a Geltrex substratum (Gibco) in mTeSR1 medium supplemented with thiazovivin ([…]; a ROCK inhibitor). After overnight plating, hESCs were washed (DMEM/F12) and differentiated towards posterior PS using BMP4 (15-40 ng/mL, R&D Systems), CHIR99021 ([…]), FGF2 (20 ng/mL, Invitrogen) and PIK90 (100 nM, Calbiochem) for 24 hours, with the optional inclusion of Activin (30 ng/mL, R&D Systems) to induce mid PS. Day 1 mid or posterior PS was subsequently washed (DMEM/F12) and further differentiated using BMP4 (40 ng/mL), GDC-0941 (0.25-2.5 μM, Cellagen Technology), Forskolin (10 μM, Tocris), SB-505124 ([…]), VEGF (100 ng/mL, R&D Systems), XAV939 (1 μM, Tocris) and ascorbic acid-2-phosphate (200 μg/mL, Sigma) for 24 hours. Day 2 cultures were further directed into the definitive hematopoietic lineage/hemogenic precursors by Activin A (15 ng/mL), GDC-0941 (0.25-2.5 μM), VEGF (100 ng/mL), XAV939 (1 μM) and ascorbic acid-2-phosphate (200 μg/mL) for 24 hours. Day 3 definitive hematopoietic progenitors were subsequently differentiated into early Runx1^lowGfi1^low hemogenic intermediates through day 4-5 treatment with BMP4 (50 ng/mL), TTNPB (500 nM), VEGF (100 ng/mL) and XAV939 (1 μM) for 48 hours, supplemented with SB-505124 (2 μM) on day 5. Day 5 populations were then dissociated into single cells, counted and reaggregated in individual wells of a low-adhesion V-bottom or U-bottom 96-well plate (e.g., Thermo Fisher, catalog no. 249952) with ˜15,000-20,000 cells seeded per well. Aggregates were cultured for 48 additional hours until day 7 in BMP4 (50 ng/mL), TTNPB (500 nM), VEGF (100 ng/mL), XAV939 (1 μM), SB-505124 (2 μM), SCF (25-50 ng/mL, R&D Systems), IL6 (10 ng/mL, R&D Systems) and IL6RA (250-1000 ng/mL, R&D Systems). All differentiation was conducted in serum-free CDM2 fully-defined basal media.

[1] = tested on: hESC-derived cardiac mesoderm; assay: Cardiac mesoderm differentiation into cardiovascular fates, qPCR; conditions: added to WNT blockade with BMP activation
Method: Day 2 lateral mesoderm was differentiated into day 4 cardiac mesoderm by treating them with 1 μM A8301+30 ng/mL BMP4+1 μM C59+20 ng/mL FGF2 for 48 hrs, or alternatively, with 1 μM A8301+30 ng/mL BMP4+20 ng/mL FGF2 for 24 hrs followed by 25 ng/mL Activin+30 ng/mL BMP4+1 μM C59 for the next 24 hrs (schema in FIG. 5E; positive effect of mid-stage Activin shown in FIG. 12K). Subsequently, day 4 cardiac mesoderm was briefly washed (DMEM/F12) and treated with 30 ng/mL BMP4+1 μM XAV939+200 μg/mL 2-phospho-ascorbic acid (Sigma) for 48-96 hrs to yield day 6-8 cardiomyocyte-containing populations. Spontaneously contracting cardiomyocyte foci were evident from day 8 onwards.
(§2) C) To reveal the possible identity of non-cardiac mesoderm lineages that were contaminating cardiac mesoderm-containing cultures, NKX2.5-GFP hESCs were differentiated towards mid primitive streak (day 1) and were differentiated towards a heterogeneous population containing cardiac mesoderm (day 3) by treatment with SB-505124+BMP4+C59 (without FGF2) on days 2-3 of differentiation. FACS was performed on day 3 to purify either NKX2.5-GFP^+ or NKX2.5-GFP^− cells (top subpanels) which were sorted for qPCR (bottom subpanels). Gene expression was normalized to expression of a gene in the NKX2.5-GFP^+ fraction (dotted line). D) Timecourse of gene expression in hESCs differentiating towards mid primitive streak and lateral mesoderm, with treatment by SB-505124+BMP4+C59 on days 2-3 of differentiation. […] G) To assess whether a stabilized vitamin C analog (ascorbic acid-2-phosphate) (AA2P) enhanced cardiac mesoderm differentiation into cardiomyocytes, day 4 hESC-derived cardiac mesoderm was exposed to BMP4 (30 ng/mL)+XAV939 (1 μM) for 48 hours in the presence or absence of 200 μg/mL AA2P and qPCR was conducted of day 6 populations; qPCR data were normalized such that expression values in the highest-expressing sample was normalized=1.0. […] J) In the mouse embryo, endocardium (progenitors to heart-affiliated endothelium) are marked by transient coexpression of pan-heart marker Nkx2.5 together with endothelial markers (Ferdous et al., 2009; Stanley et al., 2002).

[2] = tested on: day 3 hemogenic precursors; assay: Hemogenic precursors into day 5 hematopoietic intermediates
Method: as §1

lateral mesoderm = assay: Forelimb versus hindlimb progenitor specification from lateral mesoderm; conditions: RA signaling activated for 24 hours during lateral mesoderm induction (D1-2)
Method: Undifferentiated hPSCs (wild-type H7 as well as TBX5-Venus V19-2 H9 hESCs) were maintained in mTeSR1 media on Geltrex-coated plates. As described, they were differentiated into mid primitive streak for 24 hours (D0-1; 30 ng/mL Activin+40 ng/mL BMP4+6 μM CHIR99021+20 ng/mL FGF2+100 nM PIK90) and subsequently differentiated into lateral mesoderm (D1-2; 1 μM A-83-01+30 ng/mL BMP4+1 μM C59), with the inclusion of 50 nM of TTNPB or 2 μM ATRA on D1-2 for trunk lateral mesoderm that was subsequently competent for forelimb differentiation.
Day 2 trunk lateral mesoderm was differentiated into day 3 forelimb progenitors (D2-3; 1 μM A-83-01+1 μM DMH1+3 μM CHIR99021). By contrast, day 2 non-trunk lateral mesoderm was differentiated into day 3 hindlimb progenitors (D2-3; 25 ng/mL Activin+1 μM DMH1+3 μM CHIR99021).

[3] = tested on: day 5 hematopoietic intermediates; assay: Day 5-7 continued differentiation of hematopoietic intermediates, factor withholding; conditions: individually withholding the factor from the 8 factors, 48 hours
Method: as §1

[4] = tested on: hESC-derived lateral mesoderm; assay: Lateral mesoderm patterning, qPCR
Method: Subsequently, day 1 anterior primitive streak was briefly washed (DMEM/F12) and differentiated towards day 2 paraxial mesoderm for 24 hours (1 μM A-83-01+3 μM CHIR99021+250 nM LDN-193189+20 ng/mL FGF2). Separately, day 1 mid primitive streak was differentiated towards day 2 lateral mesoderm for 24 hours (1 μM A-83-01+30 ng/mL BMP4+1 μM C59; with 2 μM SB-505124 sometimes used instead of A-83-01).
as §2

[5] = tested on: day 3 early somite progenitors; assay: Patterning of early somite progenitors into sclerotome or dermomyotome; conditions: 21K with C59, 2-3 days
Method: Day 2 paraxial mesoderm was briefly washed (DMEM/F12) and further differentiated into day 3 early somite/somitomere precursors for 24 hours (1 μM A-83-01+250 nM LDN-193189+1 μM C59+500 nM PD0325901). Subsequently, day 3 early somites were dorsoventrally patterned into either ventral somites/sclerotome (5 nM 21K+1 μM C59) or dorsal somites/dermomyotome (3 μM CHIR99021+150 nM Vismodegib). Sclerotome induction was conducted for 48-72 hours (leading to day 5-6 ventral somite progenitors). […] Media was changed 24 hours for all steps. The Hedgehog agonist 21K, which has been previously described in, e.g., Brunton et al., 2009 the disclosure of which is incorporated herein by reference in its entirety, was commercially synthesized.
Day 3 early somites were briefly washed (DMEM/F12), treated with BMP4+CHIR99021+Vismodegib for 24 hours, washed again (DMEM/F12) and subsequently treated with CHIR99021 (3 μM)+21K (5 nM) for 24 hours. This day 5 dermomyotome was further empirically differentiated towards skeletal muscle-like progeny (using medium containing 2% horse serum, which has been previously described in, e.g., Xu et al. 2013, the disclosure of which is incorporated herein by reference in its entirety) for 12 days, yielding day 17 skeletal muscle-containing populations.
FIG. 11: A) To determine the length of time required for sclerotome differentiation, a qPCR timecourse was performed, encompassing undifferentiated hESCs (D0), day 2 hESC-derived paraxial mesoderm (D2 PXM), day 3 hESC-derived early somite progenitors, and hESC-derived day 3 early somite progenitors that were exposed to sclerotome inductive conditions (5 nM 21K+1 μM C59) for 24 or 48 hours. B) Description of EF1α-BCL2-T2A-GFP lentiviral construct (otherwise known as “C306”; top) and FACS plot of a stably-transduced polyclonal H9 hESC line with near-uniform expression of the BCL2-T2A-GFP transgene (green contour) by comparison to uncolored wild-type hESCs (bottom) (see above methods for details of derivation of the H9 BCL2-T2A-GFP hESC line). C) Higher-magnification picture of BCL2-T2A-GFP hESC-derived sclerotome ectopic bone grafts (originally described above in FIG. 4, panel E), showing that despite the near-ubiquitous expression of GFP throughout the ectopic bone graft (indicating its human provenance), the blood vessels are clearly GFP-negative and therefore presumably derived from the mouse host; scale bar=1 mm. […] L) Description of EF1a-BCL2-T2A-GFP lentiviral construct (otherwise known as “C306”; top) and FACS plot of a stably-transduced polyclonal H9 hESC line with near-uniform expression of the BCL2-T2A-GFP transgene (green contour) by comparison to uncolored wild-type hESCs (bottom) (see the methods described herein for details of derivation of the H9 BCL2-T2A-GFP hESC line). M) Description of UBC-Luciferase-T2A-tdTomato lentiviral construct (top); bioluminescent assay of cultured H9 UBC-Luciferase-T2A-tdTomato hESCs validates that these cells are luciferase-expressing in vitro (bottom).

Compound: O=C1O[C@H]([C@@H](O)CO)C(O)=C1OP(=O)(O)O [ascorbic acid-2-phosphate]
- efficiency of CD34+ progenitors produced by day 3 (SOX17-mCherry hESCs; included on days 2 and 3): moderately enhanced the efficiency of CD34^+ progenitors
- cardiomyocyte differentiation [1]: further enhanced

Compound: C/C(=C\c1ccc(C(=O)O)cc1)c1ccc2c(c1)C(C)(C)CCC2(C)C [TTNPB]
- TBX20 expression ([2]; day 5): important to downregulate TBX20 expression
- RUNX1 expression by day 5 ([2]; withdrawal of the factor from BMP, VEGF, XAV939, TTNPB): crippled RUNX1 expression
- forelimb transcription factor TBX5 expression on D3 (lateral mesoderm): paramount for lateral mesoderm to subsequently express key forelimb transcription factor TBX5

Compound: O=c1[nH]c(-c2ccc(C(F)(F)F)cc2)nc2c1CSCC2 [XAV939, 3,5,7,8-Tetrahydro-2-[4-(trifluoromethyl)phenyl]-4H-thiopyrano[4,3-d]pyrimidin-4-one]
- GATA1 expression ([2]; day 5): pivotal to prevent BMP-induced GATA1 expression
- GFI1B expression [3]: strongly diminished
- SOX17+ cells formed by day 3 (SOX17-mCherry hESCs; treatment on day 2-3, 24 hours): doubled the formation of SOX17^+ cells

Compound: Cc1cc(-c2ccc(CC(=O)Nc3ccc(-c4cccnc4)cc3)cc2)ccn1 [C59, 4-(2-Methyl-4-pyridinyl)-N-[4-(3-pyridinyl)phenyl]benzeneacetamide]
- lateral mesoderm fate (qPCR) ([4]; day 2 lateral mesoderm, SB-505124+BMP4 with CHIR99021 or C59, 24 hours): induced an anterior lateral mesoderm/cardiac mesoderm fate
- pan-lateral mesoderm marker FOXF1 expression ([4]; last 12 hrs C59 or 3 μM CHIR in addition to BS): not markedly changed
- sclerotome fate induction [5]: efficiently induced the sclerotome fate
